In US20060234986A1, “Use of TAFI inhibitors for enhanced myocardial reperfusion and facilitated PCI” (Schering Aktiengesellschaft, priority 2005, published 2006):

Tests used:
[1] = system: bleeding time after sectioning of the cuticle; test: Dog cuticle bleeding time; format: in vivo
Excerpt: (§1) A dog femoral artery thrombosis model was used to test that TAFI inhibition by i.v. administration of a potent and selective TAFI inhibitor would potentiate fibrinolysis. A stable, occlusive thrombus was formed using FeCl2 to chemically injure the arterial wall. Thrombotic occlusion and reperfusion (effective fibrinolysis) were monitored by measuring blood flow with a Doppler flow probe. Since no spontaneous reperfusion is observed in this model, a sub-maximal dose of tPA was used to enhance baseline activity. […] Bleeding propensity was measured by determining the time required for bleeding to stop following a series of standardized wounds (sectioning of the cuticle).
(§2) Male Beagle dogs (8-12 kg) were anesthetized with isoflurane (2-3%). […] Femoral artery blood flow, systemic blood pressure, heart rate and breathing patterns were monitored and recorded on a data acquisition system during the experiment. […] The time for the cut to cease bleeding was recorded as the primary bleeding time.
(§3) After stabilization of hemodynamic parameters, a blood sample was taken for drug levels. […] Bleeding time was determined and a blood sample was collected 20 min after the start of the tPA infusion. […]

[2] = system: rabbit jugular vein thrombus; test: Rabbit jugular vein thrombosis model, thrombus weight; format: in vivo; details: for Thrombus weight (wet): 90 min
Method: Thrombosis was initiated ex vivo and introduced into the jugular vein. Treatment compound(s) were administered to the animals after thrombus formation and introduction. Fibrinolysis was assessed by measuring clot weight at the end of the study. […] The threshold dose of tPA was combined with either a TAFI inhibitor of the invention, (2S)-2-(3-(amino)methylphenyl)-3-(((1R)-1-(3-phenylpropylsulfonyl)amino-2-methylpropyl)(hydroxy)phosphinoyl)propanoic acid trifluoroacetate, or the peptidic TAFI inhibitor CPI, which was used as a positive control to confirm the effect of TAFI inhibition in this model.
Male New Zealand white rabbits (2.35-3.14 kg) were anesthetized using isoflurane. A segment of the jugular vein was isolated with ligatures and injected with a mixture of autologous citrated blood and thromboplastin to induce thrombus formation. The thrombus formed in the isolated venous segment was allowed to mature for 30 minutes prior to releasing the ligatures and initiating thrombolytic treatment.
Rabbits were divided into the following treatment groups (10-12 animals per group): • (1) vehicle; phosphate buffered saline (PBS) • (2) threshold fibrinoloytic dose tPA (10 μg/kg+67 μg/kg/hr) • (3) CPI (500 μg/kg+300 μg/kg/hr)+tPA low (10 μg/kg+67μg/kg/hr) • (4) low TAFI inhibitor (0.3 mg/kg+0.14 mg/kg/hr)+tPA low (10 μg/kg+67 μg/kg/hr) • (5) high TAFI inhibitor (3 mg/kg+1.4 mg/kg/hr)+tPA low ([…]+67 μg/kg/hr) • (6) maximally effective dose tPA (30 μg/kg+200 μg/kg/hr)
Blood samples were collected from the left jugular vein for measurement of TAFI inhibitor plasma drug levels prior to releasing the ligatures (time=0), and at 1, 10, 30, 60, and 90 minutes after starting thrombolytic treatment. CPI, TAFI inhibitor, tPA or vehicle were administered as bolus injections, followed by a constant infusion for 90 minutes via the right marginal ear vein. At the end of 90 minutes, the rabbits were euthanized and the thrombus was removed for determination of wet and dry weights. The relative effects of all treatment groups were the same, regardless of whether wet or dry weights were utilized for analysis, so only wet weights are used in the subsequent discussion. The assessment of bleeding risk was evaluated by measuring the weight of blood loss from toe nail clips performed prior to thrombolytic treatment, and at the end of the study. Re-bleeding from the previous site following initial hemostasis was also recorded.
Data were analyzed using ANOVA followed by the LSD test for a comparison of differences in thrombus weight in the various treatment groups. In the vehicle-treated animals (group 1) thrombus weights averaged 98±9 mg. […] When either CPI (group 3) or TAFI inhibitor (group 4 or 5) was given together with the low dose of tPA, the threshold effect of tPA was enhanced, and a significant reduction in thrombus weights was observed when compared to the vehicle-treated group. This enhancement of fibrinolytic activity of tPA for the CPI group (68±10 mg) and the low dose TAFI inhibitor group (63±10 mg) was similar to results obtained with the high dose TAFI inhibitor group (56±13 mg). In animals treated with the higher dose of tPA (group 6), a significant reduction in thrombus weight (41±7 mg) was observed compared to both the vehicle and low dose tPA groups.

α2-antiplasmin = test: Ex vivo α2-antiplasmin activity (colorimetric assay) in dog plasma
Method: Plasma drug concentration was measured using LC/MS/MS techniques. Ex vivo α2-antiplasmin, an indicator of systemic plasmin activation, was measured by colorimetric assay. Exogenously activated TAFI (10 nM) was added into the blank plasma and TAFI activity measured by colorimetric assays was defined as 100%. Plasma from TAFI inhibitor-administered dogs were treated in the same way, and results were expressed as the percent inhibition of the spiked TAFI activity.

[3] = system: rat femoral artery occlusive thrombus; test: Rat femoral artery thrombosis model (rose Bengal + light irradiation), incidence of reperfusion; format: in vivo
Excerpt: A stable, occlusive thrombus was formed by giving rose Bengal intravenously followed by light irradiation. Free radicals generated at the site of irradiation result in endothelial damage that causes an occlusive thrombus. Thrombotic occlusion and effective fibrinolysis (reperfusion) were monitored by measuring blood flow with a Doppler flow probe. Since no spontaneous reperfusion is observed in this model, a threshold dose of tPA was used to mimic the endogenous fibrinolytic activity observed in patients with STEMI undergoing PCI (16-25% spontaneous reperfusion rate). […] Based on the results of phanmacokinetic studies and in vitro clot lysis assays, two doses (3 and 10 mg/kg) of a TAFI inhibitor of the invention, (2S)-2-(3-(amino)methylphenyl)-3-(((1R)-1-(3-phenylpropylsulfonyl)amino-2-methylpropyl)(hydroxy)phosphinoyl)propanoic acid trifluoroacetate, were used.
Male Wistar rats (241-270 g) were anesthetized with sodium pentobarbital. A section of the right femoral artery was isolated carefully, and a pulse Doppler flow probe was placed for monitoring blood flow. The left carotid artery, both jugular veins, and left femoral vein were cannulated with polyethylene tubes for monitoring blood pressure and heart rate, for injection of tPA, rose Bengal and TAFI inhibitor, respectively. Blood flow, blood pressure and heart rate were continuously recorded on a thermal recorder during the experiment. An occlusive thrombus was induced in the right femoral artery by bolus injection of rose Bengal followed by light exposure. Occlusive thrombus was observed approximately 6 min after the injection of rose Bengal and start of irradiation.
Rats were assigned to four groups for the tPA dose response as follows: • (1) Vehicle (saline; n=8) • (2) tPA (72 μg/kg/min=2.5 million I.U./kg/hr; n=8) • (3) tPA (115 μg/kg/min=4 million I.U./kg/hr; n=10) • (4) tPA (230 μg/kg/min=8 million I.U./kg/hr; n=8)
tPA or vehicle was infused via the right jugular vein beginning 10 min after the formation of occlusive thrombus and the infusion was continued for 60 min.
Rats were assigned to three groups for the TAFI inhibitor efficacy study as follows: • (1) tPA threshold (72 μg/kg/min, n=16) • (2) low TAFI inhibitor (3 mg/kg+0.03 mg/kg/min) and tPA threshold (72 μg/kg/min) (n=8) • (3) high TAFI inhibitor (10 mg/kg+0.10 mg/kg/min) and tPA threshold (72 μg/kg/min) (n=8)
Administration of TAFI inhibitor or vehicle via the left femoral vein was started simultaneously with tPA via the right jugular vein beginning 10 min after the formation of occlusive thrombus, both given as a bolus over 1 min and infusion for 59 min. […] The incidence of reperfusion was used as the index of drug efficacy.

[4] = system: dog femoral artery occlusive thrombus; test: Dog femoral artery thrombosis model (FeCl2 injury), reperfusion and time to occlusion; format: in vivo; details: TAFI inhibitor pre-treatment (10 min before FeCl2), n=6, p=ns vs control group
Excerpt: as §1, §2, §3

[5] = system: LPS-induced impairment of fibrinolysis (lung fibrin deposition); test: Rat lung fibrin deposition model (batroxobin, 125I-fibrinogen, LPS); format: in vivo
Method: This model was used to test the hypothesis that inhibition of endogenous TAFI can enhance fibrinolysis. Batroxobin, a thrombin-like enzyme, was used to hydrolyze fibrinogen to fibrin, which deposits in tissues, especially in the lungs. Following tissue deposition, fibrin is lysed into fibrin degradation products, which return to the blood. In this study, ^125I-labeled fibrinogen was given and tissue accumulation of fibrin and the subsequent fibrinolysis were assessed by the mobilization of ^125I from blood to tissue (generation of ^125I-fibrin from ^125I-fibrinogen) and back to blood (generation of ^125I-fibrin degradation products from ^125I-fibrin) after batroxobin injection. LPS has been known to stinulate the release of numerous endogenous factors that can inhibit fibrinolytic activity, including TAFI, thus preventing spontaneous fibrinolysis in the lungs.
Male Sprague-Dawley rates (300-350g) were randomly divided into three groups: • (1) untreated (controls) • (2) treated with LPS • (3) treated with LPS+TAFI inhibitor. Animals assigned to receive LPS (0.5 mg/kg, iv) were injected 3 hours before batroxobin injection. Twenty minutes before batroxobin injection, all animals were anesthetized with pentobarbital (65 mg/kg, ip), and saline-filled catheters were placed into the right carotid artery and left jugular vein for blood collection and drug injection, respectively. ^125I-fibrinogen (1 mCi) was administered to all animals 10 min. prior to batroxobin injection and animals assigned to receive the TAFI inhibitor (10 mg/kg) were injected 5 min. before the batroxobin. The rats were sacrificed at either 5 or 30 min after batroxobin injection.

Molecule: tPA: tissue-type plasminogen activator, a plasminogen activator used as thrombolytic agent
- Bleeding time ([1]; dog, in vivo): prolonged dose-dependently
- Thrombus weight (wet) ([2]; higher (maximally effective) dose tPA 30 μg/kg + 200 μg/kg/hr alone): 41 ± 7 mg
- Thrombus weight (wet) ([2]; low (threshold) dose tPA 10 μg/kg + 67 μg/kg/hr alone, not significant vs vehicle): 80 ± 11 mg
- % Reduction Thrombus Weight ([2]; threshold dose tPA (10 μg/kg + 1 μg/kg/min) alone): 18%
- Activity of α2-antiplasmin (indicator of systemic plasmin activation) (α2-antiplasmin; tPA infusion, dose dependence): dose-dependently reduced
- Incidence of reperfusion ([3]; TAFI inhibitor efficacy study, tPA threshold dose 72 μg/kg/min alone, reperfused/total rats): 2/16
- Incidence of reperfusion ([3]; tPA dose response study, tPA 72 μg/kg/min infused 60 min, starting 10 min after occlusive thrombus, reperfused/total rats): 1/8
- Incidence of reperfusion ([3]; tPA dose response study, tPA 115 μg/kg/min infused 60 min, reperfused/total rats): 5/10
- Incidence of reperfusion ([3]; tPA dose response study, tPA 230 μg/kg/min infused 60 min, reperfused/total rats): 6/8

Molecule: CC(C)[C@H](NS(=O)(=O)CCCc1ccccc1)P(=O)(O)C[C@H](C(=O)O)c1cccc(CN)c1.O=C(O)C(F)(F)F [TAFI inhibitor, (2S)-2-(3-(amino)methylphenyl)-3-(((1R)-1-(3-phenylpropylsulfonyl)amino-2-methylpropyl)(hydroxy)phosphinoyl)propanoic acid trifluoroacetate]
- Bleeding time ([1]; TAFI inhibitor 10 mg/kg pre-thrombus + tPA 10 μg/kg/min, versus tPA alone): without further prolongation of bleeding time
- % Reduction Thrombus Weight ([2]; 0.3 mg/kg TAFI inhibitor + tPA post-thrombus formation, p = ns): 36% p = ns
- % Reduction Thrombus Weight ([2]; 3 mg/kg TAFI inhibitor + tPA post-thrombus formation, p = ns): 43% p = ns
- Thrombus weight (wet) ([2]; high TAFI inhibitor 3 mg/kg + 1.4 mg/kg/hr + tPA low (10 pg/kg + 67 μg/kg/hr)): 56 ± 13 mg
- Thrombus weight (wet) ([2]; low TAFI inhibitor 0.3 mg/kg + 0.14 mg/kg/hr + tPA low (10 μg/kg + 67 μg/kg/hr)): 63 ± 10 mg
- Time to occlusion induced by FeCl2 [4]: 31.1 ± 3.9 min
- Inhibition of α2-antiplasmin activity induced by tPA infusion (α2-antiplasmin; TAFI inhibitor administered pre- or post-thrombus formation + tPA): did not change
- Incidence of reperfusion ([3]; 3 mg/kg TAFI inhibitor + tPA (72 μg/kg/min) post-thrombus formation, p = ns): 25% (2/8) p = ns
- Incidence of reperfusion ([3]; 10 mg/kg TAFI inhibitor + tPA (72 μg/kg/min) post-thrombus formation, p < 0.03): 63% (5/8) p < 0.03
- Incidence of reperfusion ([3]; high TAFI inhibitor dose 10 mg/kg + 0.10 mg/kg/min i.v. + tPA threshold 72 μg/kg/min, post-thrombus, reperfused/total rats): 5/8
- Incidence of reperfusion ([3]; low TAFI inhibitor dose 3 mg/kg + 0.03 mg/kg/min i.v. + tPA threshold 72 μg/kg/min, post-thrombus, reperfused/total rats): 2/8
- CPM in the lungs versus control rats ([5]; LPS + TAFI inhibitor 10 mg/kg, 30 min after batroxobin): not different
- Blood CPM and 125I in the lungs ([5]; LPS + TAFI inhibitor 10 mg/kg, 30 min after batroxobin, versus LPS-treated rats): prevented LPS-induced recovery of blood CPM and resulted in ^125I retention in the lungs
- Radioactive readings in blood or lungs ([5]; TAFI inhibitor 10 mg/kg in LPS-treated rats, 5 min after batroxobin, in relation to LPS-treated rats): did not change
